Experiments:
human BACE1 = human BACE1 (Homo sapiens, UniProt P56817); test: BACE1 fluorescent kinetic assay (cleavage of peptide substrate WABC-6); format: biochemical; conditions: 10 nM enzyme, 25 μM substrate WABC-6, pH 4.5, room temperature
Protocol: Evaluation of BACE1 Binding Affinity of Test Compounds
Fluorescent Kinetic Assays
Dilution and mixing steps: total reaction volume: 100 μL
100 μM substrate dilution in 1×PBS was prepared, and
Fluorescence Readings: Readings at λex 320 nm and λem 420 nm are taken every 40 sec for 30 min at room temperature and the linear slope for substrate cleavage rate (vi) determined.

Chain of human BACE1 (P56817 46-501): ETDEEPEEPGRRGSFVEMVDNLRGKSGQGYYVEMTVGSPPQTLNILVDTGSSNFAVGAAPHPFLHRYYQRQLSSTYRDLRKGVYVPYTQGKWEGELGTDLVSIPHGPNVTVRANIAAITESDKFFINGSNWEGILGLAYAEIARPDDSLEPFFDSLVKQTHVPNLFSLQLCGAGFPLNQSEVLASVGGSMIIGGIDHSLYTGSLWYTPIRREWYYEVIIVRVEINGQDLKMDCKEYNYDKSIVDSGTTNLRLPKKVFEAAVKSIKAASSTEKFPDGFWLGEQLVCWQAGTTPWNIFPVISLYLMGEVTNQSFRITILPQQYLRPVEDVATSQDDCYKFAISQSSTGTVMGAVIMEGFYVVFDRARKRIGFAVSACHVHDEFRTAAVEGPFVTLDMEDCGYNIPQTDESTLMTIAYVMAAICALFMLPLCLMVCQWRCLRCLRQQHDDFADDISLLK

Molecule	IC50 (human BACE1; Activity Table, Examples 1-108) [nM]	melting point [°C]	IC50 (human BACE1; Examples 109-141) [nM]
C=CCCC(F)c1cccc(C2(c3ccc(OC(F)F)cc3)N=C(N)N(C)C2=O)c1 (centres unmarked) [Example 12, 2-Amino-5-(4-difluoromethoxy-phenyl)-5-[3-(1-fluoro-pent-4-enyl)-phenyl]-3-methyl-3,5-dihydro-imidazol-4-one]	< 100	50 to 55	–
C=CCCC(F)c1cc(C2(c3ccc(OC(F)F)cc3)N=C(N)N(C)C2=O)ccc1F (centres unmarked) [Example 13, 2-Amino-5-(4-difluoromethoxy-phenyl)-5-[4-fluoro-3-(1-fluoro-pent-4-enyl)-phenyl]-3-methyl-3,5-dihydro-imidazol-4-one]	110 to 1000	50 to 55	–
CN1C(=O)C(c2ccc(OC(F)F)cc2)(c2ccc(F)c(CCCC#N)c2)N=C1N (centres unmarked) [Example 14, 4-{5-[2-Amino-4-(4-difluoromethoxy-phenyl)-1-methyl-5-oxo-4,5-dihydro-1H-imidazol-4-yl]-2-fluoro-phenyl}-butyronitrile]	< 100	65 to 70	–
Cc1cc(C2(c3ccc(OC(F)F)cc3)N=C(N)N(C)C2=O)ccc1F (centres unmarked) [Example 15, 2-Amino-5-(4-difluoromethoxy-phenyl)-5-(4-fluoro-3-methyl-phenyl)-3-methyl-3,5-dihydro-imidazol-4-one]	110 to 1000	70	–
COc1ccc(C2(c3ccc(OC(F)F)cc3)N=C(N)N(C)C2=O)cc1C#N (centres unmarked) [Example 16, 5-[2-Amino-4-(4-difluoromethoxy-phenyl)-1-methyl-5-oxo-4,5-dihydro-1H-imidazol-4-yl]-2-methoxy-benzonitrile]	> 1000	104 to 105	–
CN1C(=O)C(c2ccc(OC(F)F)cc2)(c2ccc(F)c(CF)c2)N=C1N (centres unmarked) [Example 17, 2-Amino-5-(4-difluoromethoxy-phenyl)-5-(4-fluoro-3-fluoromethyl-phenyl)-3-methyl-3,5-dihydro-imidazol-4-one]	110 to 1000	70 to 73	–
Cc1ccccc1C1(c2ccc(OC(F)F)cc2)N=C(N)N(C)C1=O (centres unmarked) [Example 18, 2-Amino-5-(4-difluoromethoxy-phenyl)-3-methyl-5-o-tolyl-3,5-dihydro-imidazol-4-one]	> 1000	85 to 90	–
C=CCC(F)c1cccc(C2(c3ccc(OC(F)F)cc3)N=C(N)N(C)C2=O)c1 (centres unmarked) [Example 57, 2-amino-5-[4-(difluoromethoxy)phenyl]-5-[3-(1-fluorobut-3-en-1-yl)phenyl]-3-methyl-3,5-dihydro-4H-imidazol-4-one]	110 to 1000	49 to 51	–
CN1C(=O)C(c2ccc(OC(F)F)cc2)(c2cccc(OCCCF)c2)N=C1N (centres unmarked) [Example 82, 2-Amino-5-[4-(difluoromethoxy)phenyl]-5-[3-(3-fluoropropox-1-yl)phenyl]-3-methyl-3,5-dihydro-4H-imidazol-4-one]	< 100	161 to 162	–
CN1C(=O)C(c2ccc(OC(F)F)cc2)(c2cccc(CCCCC#N)c2)N=C1N (centres unmarked) [Example 83, 5-(3-{2-Amino-4-[4-(difluoromethoxy)phenyl]-1-methyl-5-oxo-4,5-dihydro-1H-imidazol-4-yl}phenyl)pentanenitrile]	< 100	65	–
CN1C(=O)[C@](c2ccc(OC(F)F)cc2)(c2ccc(F)c(C#CCF)c2)N=C1N [Example 108, (5S)-2-amino-5-[4-(difluoromethoxy)phenyl]-5-[4-fluoro-3-(3-fluoroprop-1-yn-1-yl)phenyl]-3-methyl-3,5-dihydro-4H-imidazol-4-one]	> 1000	–	–
CCOC/C=C(\C)c1cccc(C2(c3ccc(OC(F)F)cc3)N=C(N)N(C)C2=O)c1 (centres unmarked) [Example 109, 2-amino-5-[4-(difluoromethoxy)phenyl]-5-{3-[(1E)-3-ethoxy-1-methylprop-1-en-1-yl]phenyl}-3-methyl-3,5-dihydro-4H-imidazol-4-one]	–	–	110 to 1000
C=CC[C@H](C)c1cccc(C2(c3ccc(OC(F)F)cc3)N=C(N)N(C)C2=O)c1 (stereo partly drawn) [Example 110, 2-amino-5-[4-(difluoromethoxy)phenyl]-3-methyl-5-{3-[(1S)-1-methylbut-3-en-1-yl]phenyl}-3,5-dihydro-4H-imidazol-4-one]	–	–	110 to 1000
COCCC(C)c1cccc(C2(c3ccc(OC(F)F)cc3)N=C(N)N(C)C2=O)c1 (centres unmarked) [Example 111, 2-amino-5-[4-(difluoromethoxy)phenyl]-5-[3-(3-methoxy-1-methylpropyl)phenyl]-3-methyl-3,5-dihydro-4H-imidazol-4-one]	–	–	> 1000
CCOCCC(C)c1cccc(C2(c3ccc(OC(F)F)cc3)N=C(N)N(C)C2=O)c1 (centres unmarked) [Example 112, 2-amino-5-[4-(difluoromethoxy)phenyl]-5-[3-(3-ethoxy-1-methylpropyl)phenyl]-3-methyl-3,5-dihydro-4H-imidazol-4-one]	–	–	> 1000
Cc1cc2cc(C3(c4ccc(OC(F)F)cc4)N=C(N)N(C)C3=O)ccc2o1 (centres unmarked) [Example 113, 2-amino-5-[4-(difluoromethoxy)phenyl]-3-methyl-5-(2-methyl-1-benzofuran-5-yl)-3,5-dihydro-4H-imidazol-4-one]	–	–	> 1000
CN1C(=O)C(c2ccc(OC(F)F)cc2)(c2cccc(N)c2)N=C1N (centres unmarked) [Example 115, 2-amino-5-(3-aminophenyl)-5-[4-(difluoromethoxy)phenyl]-3-methyl-3,5-dihydro-4H-imidazol-4-one]	–	–	> 1000
CC(=O)Nc1cccc(C2(c3ccc(OC(F)F)cc3)N=C(N)N(C)C2=O)c1 (centres unmarked) [Example 116, N-(3-{2-amino-4-[4-(difluoromethoxy)phenyl]-1-methyl-5-oxo-4,5-dihydro-1H-imidazol-4-yl}phenyl)acetamide]	–	–	110 to 1000
CN1C(=O)C(c2ccc(OC(F)F)cc2)(c2cccc(NC(=O)c3ccc4c(c3)CCO4)c2)N=C1N (centres unmarked) [Example 117, N-(3-{2-amino-4-[4-(difluoromethoxy)phenyl]-1-methyl-5-oxo-4,5-dihydro-1H-imidazol-4-yl}phenyl)-2,3-dihydro-1-benzofuran-5-carboxamide]	–	–	< 100
C=CCCCCc1cccc(C2(c3ccc(OC(F)F)cc3)N=C(N)N(C)C2=O)c1 (centres unmarked) [Example 121, 2-amino-5-[4-(difluoromethoxy)phenyl]-5-(3-hex-5-en-I-ylphenyl)-3-methyl-3,5dihydro-4H-imidazol-4-one]	–	–	< 100
C=CCCCCc1cccc(C2(c3ccc(OC(F)F)cc3)N=C(N)N(C)C2=O)c1 (centres unmarked) [Example 125, 2-amino-5-[4-(difluoromethoxy)phenyl]-5-(3-hex-5-en-I-ylphenyl)-3-methyl-3,5-dihydro-4H-imidazol-4-one]	–	–	< 100
CCCCCCc1cccc(C2(c3ccc(OC(F)F)cc3)N=C(N)N(C)C2=O)c1 (centres unmarked) [Example 126, 2-amino-5-[4-(difluoromethoxy)phenyl]-5-(3-hexylphenyl)-3-methyl-3,5-dihydro-4Himidazol-4-one]	–	–	110 to 1000
COCCCC/C=C/c1cccc([C@@]2(c3ccc(OC(F)F)cc3)N=C(N)N(C)C2=O)c1 [Example 129, (R,E)-2-amino-4-(4-(difluoromethoxy)phenyl)-4-(3-(6-methoxyhex-1-enyl)phenyl)-1-methyl-1H-imidazol-5(4H)-one]	–	–	< 100
CC(C)Oc1cc(C2(c3ccc(OC(F)F)cc3)N=C(N)N(C)C2=O)ccc1F (centres unmarked) [Example 136, 2-amino-5-[4-(difluoromethoxy)phenyl]-5-(4-fluoro-3-isopropoxyphenyl)-3-methyl-3,5-dihydro-4H-imidazol-4-one]	–	–	110 to 1000
CC(C)C#Cc1cc(C2(c3ccc(OC(F)F)cc3)N=C(N)N(C)C2=O)ccc1F (centres unmarked) [Example 138, 2-amino-5-[4-(difluoromethoxy)phenyl]-5-[4-fluoro-3-(3-methylbut-1-yn-1-yl)phenyl]-3-methyl-3,5-dihydro-4H-imidazol-4-one]	–	–	< 100
CN1C(=O)[C@@](c2ccc(OC(F)F)cc2)(c2ccc(F)c(/C=C/CCF)c2)N=C1N [Example 140, (5R)-2-amino-5-[4-(difluoromethoxy)phenyl]-5-{4-fluoro-3-[(1E)-4-fluorobut-1-en1-yl]phenyl}-3-methyl-3,5-dihydro-4H-imidazol-4-one]	–	–	> 1000
CN1C(=O)[C@](c2ccc(OC(F)F)cc2)(c2ccc(F)c(/C=C/CCF)c2)N=C1N [Example 141, (5S)-2-amino-5-[4-(difluoromethoxy)phenyl]-5-{4-fluoro-3-[(1E)-4-fluorobut-1-en-1-yl]phenyl}-3-methyl-3,5-dihydro-4H-imidazol-4-one]	–	–	< 100
methyl[3-(3-{2-amino-4-[4-(difluoromethoxy)phenyl]-1-methyl-5-oxo-4,5-dihydro-1H-imidazol-4-yl}phenyl)-1-methoxycyclobutyl]acetate-methyl[3-(3-{2-amino-4-[4-(difluoromethoxy)phenyl]-1-methyl-5-oxo-4,5-dihydro-1H-imidazol-4-yl}phenyl)cyclobutylidene]acetate (3:1) [Example 55]	110 to 1000	–	–

Reference: US7723368B2, “Amino-5-[4-(difluoromethoxy)phenyl]-5-phenylimidazolone compounds for the inhibition of beta-secretase” (Wyeth LLC, priority 2007, dated 2010)
